In article PMC10564737, “Structure-based design of a phosphotyrosine-masked covalent ligand targeting the E3 ligase SOCS2” (Nature Communications, 2023):
“And” between values parts separate entries of the source, which are not always exact repeats. Identical values can stand only once.

Target: T1, HiBiT-SOCS2 fusion in HeLa cells (Homo sapiens, UniProt O14508)
T1 construct: encoding SOCS2 (32–198) in pBiT3.1-N expression vector; expressed in transfected cells; host or cells: HeLa
Assay: Split-NanoLuc CETSA, live-cell mode
Type: cell-based
Parameters: Produrg CETSA screening, raw signal: reference not given here
Details: for Produrg CETSA screening, raw signal: 50uM 20hrs; for Tagg shift, live-cell CETSA: HeLa cells; for Tagg shift, live-cell CETSA / ΔT: 50 μM, 20 h; for ΔT / ΔT, individual replicates n1-n3: Prodrug screen CETSA; for ΔT: live HeLa cells, Mean n = 3
Description: One of the challenges with small-molecule binders displaying on-target activity with recombinant proteins, is to translate their utility to a cellular context. […] One of the advantages of CETSA is that target engagement can be monitored without the need for the development of a cell-permeable tracer molecule.
We utilized CETSA in a live-cell mode to evaluate the efficacy and rank the different prodrugs. We treated live HeLa cells with 50 μM compound (prodrugs) for 20 h and monitored Tagg shift as a proxy for the combo of prodrug permeability and unmasking (Fig. 4d). […] The observation could be because the POM group unmasking requires only esterase unlike the reliance of compounds 21–23 on esterase and phosphoramidase for unmasking an aryloxy phosphoramidate group.
N-terminal HiBiT-SOCS2 fusion was generated by encoding SOCS2 (32–198) in pBiT3.1-N expression vector (Promega). The transfection and target engagement assay were performed by modifying a NanoLuc target engagement protocol (Promega) with some small modifications. Briefly, HiBiT-SOCS2 fusion construct was transfected into HeLa cells using FuGENE HD (Promega) according to the manufacturer’s protocol. HiBiT-SOCS2 fusion construct was diluted into Transfection Carrier DNA (Promega) at a mass ratio of 1:100 or 1:10 for permeabilised and live-cell CETSA respectively. FuGENE HD was added at a ratio of 1:3 (μg DNA: μL FuGENE HD). 1 part (vol) of FuGENE HD complexes thus formed were combined with 20 parts (vol) of HeLa cells suspended at a density of 2 × 10^5 cells/mL, followed by incubation in a humidified, 37 °C + 5% CO2 incubator. After 20 h of incubation HeLa cells were detached and resuspended at a density of 2.5 × 10^5 cells/mL in Opti-MEM media without serum or phenol red but supplemented with protease inhibitor cocktail (Roche). Compounds stocks were added to cell suspension to maintain a final DMSO concentration of 1%. For the permeabilised assay format, 96-well PCR plates (Thermo) were pre-treated with digitonin to have a final well concentration of 50 μg/ml. 50 μl Opti-MEM cell suspension was then aliquoted to each well of the 96-well plate. The plates are then covered with microporous tape sheet (Qiagen) prior to incubation in a humidified, 37 °C + 5% CO2 incubator. Post-incubation we heat the PCR plates in 16-point temperature (split across two runs) curve spanning degrees 40-72 °C temperature span (CFX96 Touch Real-Time PCR Detection System, BioRad). The thermal cycler block was allowed to rise to the designated temperatures prior to placement of the PCR plates into the heating block and heat treatment for 3 min. After incubating the plates at room temperature for over 3 min, 50 μl of the Nano-Glo HiBiT Lytic mix (Promega) was added to each well. Samples were mixed by pipetting and placing the plate on an orbital shaker (600 rpm) for 5 min. 20 μl of the samples (in triplicates) were transferred to a AlphaPlate-384 plate (Perkin Elmer). Luminescence was recorded with GloMax Discover Microplate Reader (Promega). To generate apparent Tagg curves, the data is first converted to percent stabilized by relating the observed luminescence to the luminescence of the lowest temperature (40 °C) for that given sample. Data are then fitted to obtain apparent Tagg values using the Boltzmann Sigmoid equation using Graphpad Prism 9.

[1] = n=1, temperature point 4 of 16, temperature not given
[2] = n=1, temperature point 5 of 16, temperature not given
[3] = n=1, temperature point 6 of 16, temperature not given
[4] = n=1, temperature point 7 of 16, temperature not given
[5] = n=1, temperature point 8 of 16, temperature not given
[6] = n=1, temperature point 9 of 16, temperature not given
[7] = n=1, temperature point 10 of 16, temperature not given
[8] = n=1, temperature point 11 of 16, temperature not given
[9] = n=1, temperature point 12 of 16, temperature not given
[10] = n=1, temperature point 13 of 16, temperature not given
[11] = n=1, temperature point 14 of 16, temperature not given
[12] = n=1, temperature point 15 of 16, temperature not given
[13] = n=1, temperature point 16 of 16, temperature not given
[14] = n=2, temperature point 1 of 16, temperature not given
[15] = n=2, temperature point 2 of 16, temperature not given
[16] = n=2, temperature point 3 of 16, temperature not given
[17] = n=2, temperature point 5 of 16, temperature not given
[18] = n=2, temperature point 6 of 16, temperature not given
[19] = n=2, temperature point 7 of 16, temperature not given
[20] = n=2, temperature point 8 of 16, temperature not given
[21] = n=2, temperature point 9 of 16, temperature not given
[22] = n=2, temperature point 10 of 16, temperature not given
[23] = n=2, temperature point 11 of 16, temperature not given
[24] = n=2, temperature point 12 of 16, temperature not given
[25] = n=2, temperature point 13 of 16, temperature not given
[26] = n=2, temperature point 14 of 16, temperature not given
[27] = n=2, temperature point 15 of 16, temperature not given
[28] = n=2, temperature point 16 of 16, temperature not given

T1 sequence (O14508 32-198): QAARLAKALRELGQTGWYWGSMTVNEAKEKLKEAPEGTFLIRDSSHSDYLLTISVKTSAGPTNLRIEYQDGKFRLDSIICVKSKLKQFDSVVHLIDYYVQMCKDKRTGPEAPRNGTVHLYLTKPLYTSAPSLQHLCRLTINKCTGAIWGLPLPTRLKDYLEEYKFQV
T1 sequence (Q15370 whole entry, further chain, the tested form may be a part): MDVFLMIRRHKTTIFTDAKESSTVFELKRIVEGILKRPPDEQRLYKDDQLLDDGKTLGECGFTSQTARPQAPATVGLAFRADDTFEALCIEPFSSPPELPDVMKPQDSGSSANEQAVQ
T1 sequence (Q15369 whole entry, further chain, the tested form may be a part): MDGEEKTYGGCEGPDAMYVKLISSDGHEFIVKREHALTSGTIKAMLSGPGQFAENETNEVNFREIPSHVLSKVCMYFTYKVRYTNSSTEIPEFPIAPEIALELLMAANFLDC

O=C(CCl)Nc1cccc(CNC(=O)[C@H](Cc2ccc(OP(=O)(O)O)cc2)NC(=O)Cc2ccc(F)cc2)c1 [MN551]
Produrg CETSA screening, raw signal [1]: 51906 and 74271 and 83631 | Produrg CETSA screening, raw signal [2]: 62246 and 51464 and 85761 | Produrg CETSA screening, raw signal [3]: 108788 and 87275 and 106856 | Produrg CETSA screening, raw signal [4]: 132974 and 140531 and 140435 | Produrg CETSA screening, raw signal [5]: 134181 and 150079 and 139460 | Produrg CETSA screening, raw signal [6]: 189390 and 210146 and 247725 | Produrg CETSA screening, raw signal [7]: 222849 and 214562 and 260657 | Produrg CETSA screening, raw signal [8]: 306316 and 347377 and 363834 | Produrg CETSA screening, raw signal [9]: 497790 and 541910 and 544913 | Produrg CETSA screening, raw signal [10]: 482302 and 510836 and 519812 | Produrg CETSA screening, raw signal [11]: 563762 and 585700 and 590798 | Produrg CETSA screening, raw signal [12]: 665581 and 663053 and 701220 | Produrg CETSA screening, raw signal [13]: 691060 and 708174 and 757604 | Produrg CETSA screening, raw signal [14]: 29701 and 32684 and 58114 | Produrg CETSA screening, raw signal [15]: 46564 and 62785 and 77591 | Produrg CETSA screening, raw signal [16]: 123506 and 129184 and 115193 | Produrg CETSA screening, raw signal [17]: 47087 and 55743 and 78578 | Produrg CETSA screening, raw signal [18]: 98105 and 105595 and 117544 | Produrg CETSA screening, raw signal [19]: 144950 and 158240 and 171572 | Produrg CETSA screening, raw signal [20]: 135100 and 139766 and 168368 | Produrg CETSA screening, raw signal [21]: 229091 and 227474 and 261588 | Produrg CETSA screening, raw signal [22]: 267450 and 271378 and 303431 | Produrg CETSA screening, raw signal [23]: 327561 and 343740 and 362839 | Produrg CETSA screening, raw signal [24]: 483965 and 500271 and 541590 | Produrg CETSA screening, raw signal [25]: 506853 and 509845 and 531489 | Produrg CETSA screening, raw signal [26]: 591756 and 578279 and 588133 | Produrg CETSA screening, raw signal [27]: 597206 and 580381 and 582472 | Produrg CETSA screening, raw signal [28]: 620665 and 663583 and 665832 | Produrg CETSA screening, raw signal (n=3, Temp, 0C 59.2): 55622 | Produrg CETSA screening, raw signal (n=3, Temp, 0C 62.3): 33828 and 45066 and 46746 | Produrg CETSA screening, raw signal (n=3, Temp, 0C 66.1): 15770 and 17572 and 22773 | Produrg CETSA screening, raw signal (n=3, Temp, 0C 69.3): 14086 and 13763 and 18636 | Produrg CETSA screening, raw signal (n=3, Temp, 0C 71.1): 13296 and 19284 and 20568 | Produrg CETSA screening, raw signal (n=3, Temp, 0C 72): 12696 and 17884 and 19057 | Tagg shift, live-cell CETSA: 2 °C | ΔT: 1.99 oC | ΔT, individual replicates n1-n3 (single replicates): 0.38 oC and 4.34 oC and 1.24 oC

CC(C)(C)C(=O)OCOP(=O)(OCOC(=O)C(C)(C)C)Oc1ccc(C[C@H](NC(=O)Cc2ccc(F)cc2)C(=O)NCc2cccc(NC(=O)CCl)c2)cc1 [MN714]
Produrg CETSA screening, raw signal [1]: 54032 and 80376 and 105532 | Produrg CETSA screening, raw signal [2]: 90582 and 99338 and 174703 | Produrg CETSA screening, raw signal [3]: 139751 and 167289 and 205811 | Produrg CETSA screening, raw signal [4]: 195985 and 234426 and 281536 | Produrg CETSA screening, raw signal [5]: 244882 and 229067 and 241218 | Produrg CETSA screening, raw signal [6]: 256289 and 277913 and 306068 | Produrg CETSA screening, raw signal [7]: 320763 and 321677 and 363535 | Produrg CETSA screening, raw signal [8]: 372242 and 395029 and 425781 | Produrg CETSA screening, raw signal [9]: 423872 and 436050 and 431053 | Produrg CETSA screening, raw signal [10]: 366601 and 377426 and 420904 | Produrg CETSA screening, raw signal [11]: 362714 and 367767 and 404526 | Produrg CETSA screening, raw signal [12]: 419874 and 426204 and 438598 | Produrg CETSA screening, raw signal [13]: 418575 and 457050 and 469972 | Produrg CETSA screening, raw signal [14]: 80745 and 156547 and 107330 | Produrg CETSA screening, raw signal [15]: 108259 and 123901 and 132020 | Produrg CETSA screening, raw signal [16]: 72847 and 107017 and 131297 | Produrg CETSA screening, raw signal (n=2, temperature point 4 of 16, temperature not given): 98808 and 124869 and 145900 | Produrg CETSA screening, raw signal [17]: 73033 and 127162 and 126167 | Produrg CETSA screening, raw signal [18]: 163432 and 190209 and 191740 | Produrg CETSA screening, raw signal [19]: 242162 and 237309 and 241895 | Produrg CETSA screening, raw signal [20]: 244528 and 287537 and 296136 | Produrg CETSA screening, raw signal [21]: 280328 and 320314 and 333974 | Produrg CETSA screening, raw signal [22]: 308215 and 329369 and 371393 | Produrg CETSA screening, raw signal [23]: 342961 and 395565 and 371949 | Produrg CETSA screening, raw signal [24]: 424106 and 411160 and 460047 | Produrg CETSA screening, raw signal [25]: 397001 and 430594 and 470735 | Produrg CETSA screening, raw signal [26]: 424646 and 453700 and 455391 | Produrg CETSA screening, raw signal [27]: 402201 and 445060 and 429166 | Produrg CETSA screening, raw signal [28]: 423530 and 445088 and 469114 | Produrg CETSA screening, raw signal (n=3, Temp, 0C 62.3): 15991 | Produrg CETSA screening, raw signal (n=3, Temp, 0C 66.1): 13409 and 15862 and 18690 | Produrg CETSA screening, raw signal (n=3, Temp, 0C 69.3): 10941 and 16787 and 17374 | Produrg CETSA screening, raw signal (n=3, Temp, 0C 71.1): 8072 and 11559 and 15104 | Produrg CETSA screening, raw signal (n=3, Temp, 0C 72): 10040 and 12206 and 15596 | EC50 (2 hours EC50, MN714 dose response CETSA, Mean): 3.77 µM | EC50 (2 hours EC50, individual replicates n1-n4, MN714 dose response CETSA, single replicates): 2.69 µM and 3.55 µM and 5.05 µM | EC50 (8 hours EC50, MN714 dose response CETSA, Mean): 2.52 µM | EC50 (8 hours EC50, individual replicates n1-n4, MN714 dose response CETSA, single replicates): 1.93 µM and 3.11 µM and 0.902 µM and 4.13 µM | EC50 (EC50, live-cell CETSA, 2 h of treatment): 3.8 µM | EC50 (EC50, live-cell CETSA, 8 h of treatment): 2.5 µM | Tagg shift, live-cell CETSA: consistent superior SOCS2 engagement | ΔT: 4.89 oC | ΔT, individual replicates n1-n3 (single replicates): 4.83 oC and 5.25 oC and 4.59 oC
